We go through 3 compounds from ChEMBL document CHEMBL1159326, “Three new homoisoflavanone glycosides from the bulbs of Ornithogalum caudatum” (J Nat Prod, 2002).

For one assay, the system named is P388. Kind of assay: Antitumor activity in mouse P388 cells. Format: functional, cell-based.
The next assay concerns A549. Nature of the assay: Antitumor activity in human A549 cells. Format: functional, cell-based.

The structures appear in SMILES notation. Active and inactive are the calls of the source. The rule behind the calls is not given here.

Take `COc1ccc(C[C@]2(O)COc3cc(OC)cc(O[C@@H]4O[C@H](CO)[C@@H](O)[C@H](O)[C@H]4O)c3C2=O)cc1`: the outcome with P388 and in the assay on A549 was inactive.
For the compound `COc1ccc(C[C@]2(O)COc3cc(OC)cc(O[C@@H]4O[C@H](CO[C@@H]5O[C@@H](C)[C@H](O)[C@@H](O)[C@H]5O)[C@@H](O)[C@H](O)[C@H]4O)c3C2=O)cc1`, the result in the assay on P388 and in the assay with A549 was inactive.
`COc1ccc(C[C@]2(O)COc3cc(OC)cc(O[C@@H]4O[C@H](CO)[C@@H](O)[C@H](O)[C@H]4O[C@@H]4O[C@@H](C)[C@H](O)[C@@H](O)[C@H]4O)c3C2=O)cc1`: the result in the assay with P388 and in the assay on A549 was inactive.
